Reference: article PMC4501319, “Discovery of Selective Small-Molecule Activators of a Bacterial Glycoside Hydrolase” (Angewandte Chemie (International Ed. in English), 2014)

Columns and labels:
BtGH84 [1] = target: T1, BtGH84 (Bacteroides thetaiotaomicron, UniProt Q89ZI2); test: 4MU-GlcNAc cleavage assay (fluorescent kinetic enzyme activity assay); assay type: biochemical; settings: in the presence of 4mM activator 2 versus absence
T1 construct: made in house
Method: (§1) AC50 measurements of fragment activators were performed using a fluorescent kinetic assay. Assays were carried out in a 96 well plate (Black Nunc F96 MicroWell Plates) at 25°C in a total volume of 100 μl per well, buffer (50 mM MES pH 6.5, 200 mM NaCl, 0.01% Tween-20, 1% DMSO) with 500 μM 4-methylumbelliferyl-β-D-GlcNAc (4MU-GlcNAc), as substrate and 50 nM BtGH84. Reactions were initiated by addition of 10 μl of substrate, to a final concentration of 500 μM, followed by 5 s of shaking. Fluorescent 4-methylumbelliferyl release was recorded continuously at 355 nm excitation and 460 nm emission for 20 s using a BMG PolarStar Optima plate reader. Rates were calculated using Sigmaplot as the slope of the curve of the collected data. Corrections were made to the detected gradients to adjust for the inner filter effect of 4MU-GlcNAc and convert the gradients into units of μmol min-1 according to a standard curve of 4MU. […]
Kinetic experiments using 4MU-GlcNAc were carried out in an analogous manner except that reactions were initiated by a 10 μl injection of BtGH84, to a final concentration of 50 nM, in a well containing the substrate at the desired concentration. Values quoted throughout are mean and standard deviation of three independent […]
Apparent KM and Vmax values were calculated from a Michalis-Menten curve fit to 8-10 point substrate titrations at a constant concentration of the activator. The covariation experiments used the same range of substrate concentrations across an activator concentration range of 50 µM to 2 mM. The data obtained from these experiments was fit to the nonessential activator equation: […]
Here, [S] is the concentration of the […], [A] the concentration of the activator, α modifies KM, β modifies Vmax and KA is the half-max concentration of the activator. […]

BtGH84 [2] = target: T1, BtGH84; test: Differential scanning fluorimetry (DSF); assay type: binding; settings: melting temperature of BtGH84; PUGNAc 200 μM
Method: constant (Ka) were obtained from this fitting, and were used to calculate the Gibbs free energy (ΔG) and […]
Crystallisation and structure determination
BtGH84 crystals were grown using the sitting-drop vapour diffusion method. 1 μl of 12 mg/ml BtGH84 was mixed with 1 μl of reservoir solution (0.1 M imidazole pH 8.0, 10% PEG8000 (w/v), 3% trimethylamine N-oxide dehydrate, 12% ethylene glycol) and the crystals were allowed to grow at room temperature for at least 2 days. Crystal soaking was performed by gradually adding well solution containing 10 mM PUGNac and 50 mM activator 2, and 10% DMSO. Crystals were picked up with a nylon fibre loop (Hampton Research) and plunged into liquid nitrogen. Data were collected at Diamond beamline I04 using a Pilatus 6M-F detector (Dectris) at 100 K. An oscillation range of 0.1° degree was chosen and 180° were collected. Data were indexed, integrated and scaled using XDS.[5] Indexing was chosen to be consistent with previous collected data using Pointless[6] and a direct refinement of the model against the data was carried out. […] The quality of the final model was evaluated using the MolProbity-Server.[10] […]
DSF experiments were performed in 96-well polypropylene PCR plates (Agilent 401334) with a final well volume of 25 µl. […] Data was analysed with a combination of the Agilent MxPro software, MTSA,[11] and the DSF analysis spreadsheet in Excel.[12] […]

BtGH84 [3] = target: T1, BtGH84; test: Isothermal titration calorimetry (ITC); assay type: binding; settings: 25°C
Method: as §1, with “4MU. The initial slopes were fitted to four-parameter sigmoidal dose response curves using SigmaPlot and the AC50 values extracted.” for “4MU.”
Apparent KM and Vmax values were calculated from a Michalis-Menten curve fit to 8-10 point substrate titrations at a constant concentration of the activator. […]

T1 sequence (Q89ZI2 22-737, change not shown): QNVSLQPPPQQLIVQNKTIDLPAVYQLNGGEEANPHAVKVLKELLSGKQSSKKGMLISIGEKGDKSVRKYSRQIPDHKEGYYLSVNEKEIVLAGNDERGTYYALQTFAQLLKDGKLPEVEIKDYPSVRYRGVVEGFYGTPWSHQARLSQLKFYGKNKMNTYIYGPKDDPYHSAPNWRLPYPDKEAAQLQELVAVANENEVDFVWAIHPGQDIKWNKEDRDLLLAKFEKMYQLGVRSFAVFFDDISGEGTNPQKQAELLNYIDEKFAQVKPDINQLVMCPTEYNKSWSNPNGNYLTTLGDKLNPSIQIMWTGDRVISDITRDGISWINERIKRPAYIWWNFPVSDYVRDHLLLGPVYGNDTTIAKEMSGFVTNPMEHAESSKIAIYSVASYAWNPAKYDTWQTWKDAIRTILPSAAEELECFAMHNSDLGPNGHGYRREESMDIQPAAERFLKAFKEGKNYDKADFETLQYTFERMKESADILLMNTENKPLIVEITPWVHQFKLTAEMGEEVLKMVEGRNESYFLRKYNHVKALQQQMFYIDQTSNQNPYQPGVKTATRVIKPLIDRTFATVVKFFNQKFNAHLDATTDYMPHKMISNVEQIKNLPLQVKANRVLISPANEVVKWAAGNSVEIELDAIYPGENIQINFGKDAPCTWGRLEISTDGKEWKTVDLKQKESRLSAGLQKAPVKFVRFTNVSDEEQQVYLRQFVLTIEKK

CC(=O)N[C@H]1/C(=N/OC(=O)Nc2ccccc2)O[C@H](CO)[C@@H](O)[C@@H]1O [PUGNAc, O-(2-Acetamido-2-deoxy-D-glucopyranosylidene) amino-Z-N-phenylcarbamate]
IC50 (change) (BtGH84 [1]): reduced
increase of Tm (BtGH84 [2]): 3 °C
Kd (BtGH84 [3]; in the absence of 2): 3900 ± 120 nM
Kd (BtGH84 [3]; in the presence of 2 (10 mM)): 1100 ± 240 nM
